Where “and” joins values, the source holds several entries; their conditions need not be identical. Equal values may be shown once.
System: antibodies to pathogenic Newcastle disease virus
Type: binding, chicken

3 (RRQRRF) [compound 3]
number of positive chickens/number of tested chickens: 1/5(0.81) and 0/5(0.70) and 4/4(2.45)
